Measured values reported in PubChem BioAssay (NCI).
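In this assay, cells in 96-well plates receive the compound at five concentrations for 48 hours. Endpoints are linearly interpolated between the surrounding concentrations. Abbreviation: GI50, concentration required for 50% inhibition of growth. TGI: concentration producing complete growth inhibition.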

How the values were obtained:
Experiment in all cases: NCI anticancer screen, dose series, 48 h
NCI-H226 lung = system: NCI-H226 lung
HOP-62 NSCLC = system: HOP-62 NSCLC
A549 NSCLC = system: A549 NSCLC
NCI-H522 lung = system: NCI-H522 lung
MOLT-4 leukemia = system: MOLT-4 leukemia
MALME-3M melanoma = system: MALME-3M melanoma
CAKI-1 renal = system: CAKI-1 renal
SF-268 CNS = system: SF-268 CNS
HS 578T breast = system: HS 578T breast
BT-549 breast = system: BT-549 breast

Structure (SMILES) | GI50 (NCI-H226 lung) | TGI (NCI-H226 lung) | GI50 (HOP-62 NSCLC) | TGI (HOP-62 NSCLC) | GI50 (A549 NSCLC) | TGI (A549 NSCLC) | GI50 (NCI-H522 lung) | TGI (NCI-H522 lung) | GI50 (MOLT-4 leukemia) | TGI (MOLT-4 leukemia) | GI50 (MALME-3M melanoma) | TGI (MALME-3M melanoma) | TGI (CAKI-1 renal) | GI50 (CAKI-1 renal) | TGI (SF-268 CNS) | GI50 (HS 578T breast) | TGI (HS 578T breast) | GI50 (SF-268 CNS) | GI50 (BT-549 breast) | TGI (BT-549 breast)
CC1=CC[C@@H]2C(=O)C=CC=C[C@H]12.[C-]#[O+].[C-]#[O+].[C-]#[O+].[Fe] | > 100 µM | > 100 µM | > 100 µM | > 100 µM | > 100 µM | > 100 µM | 9.81 µM | > 100 µM | > 100 µM | > 100 µM | > 100 µM | > 100 µM |  |  |  |  |  |  |  | 
CC(C)=CC1(C)/C(=N\O)C(C)(CC(C)C)C(=O)N1O (stereo unspecified) |  | > 100 µM |  | > 100 µM |  | > 100 µM |  | > 100 µM |  | > 100 µM |  | > 100 µM | > 100 µM |  |  |  |  |  |  | 
CC(C)CCCC(C)[C@H]1CCC2C3CC=C4C[C@@H](OC(=O)CC(CC(=O)[O-])C(=O)[O-])CC[C@]4(C)C3CC[C@@]21C.N.N.[Pt+4] (stereo partly specified) |  |  |  |  | > 100 µM | > 100 µM |  |  |  |  |  |  | > 100 µM | > 100 µM |  |  |  |  |  | 
Cc1c(-c2cc(-c3ccccc3)n[nH]c2=O)c2ccccc2n1C |  | > 100 µM |  | > 100 µM |  | > 100 µM |  | > 100 µM |  | > 100 µM |  | > 100 µM | > 100 µM |  | > 100 µM |  |  |  |  | 
O=C1c2ccccc2-c2c1c1ccc([N+](=O)[O-])cc1c(=O)n2CCN1CCOCC1 | > 100 µM | > 100 µM | 52 µM | > 100 µM | > 100 µM | > 100 µM | > 100 µM | > 100 µM | 48.8 µM | > 100 µM | > 100 µM | > 100 µM | > 100 µM | 41.3 µM | > 100 µM | > 100 µM | > 100 µM | > 100 µM |  | 
COc1ccc2cn3c4ccc(O)cc4[nH]c(=O)c3c2c1 | 0.313 µM | 22.3 µM | 0.0864 µM | 17.3 µM | 0.231 µM | 18.1 µM | 0.031 µM | 1.05 µM | 0.308 µM | 16.7 µM |  |  | 17 µM | 0.179 µM | 17.5 µM | 0.249 µM | 31.6 µM | 0.217 µM | 3.34 µM | 18.1 µM
CCOC(=O)C1=C(Nc2cccc3ccccc23)OCC1=O |  | > 100 µM |  | > 100 µM |  | > 100 µM |  | > 100 µM |  | > 100 µM |  | > 100 µM | > 100 µM |  | > 100 µM |  |  |  |  | 
NC(=S)N/N=C1/C(=O)N(c2ccccc2)C(=O)C1C(=O)Nc1ccccc1 (stereo unspecified) |  | > 100 µM |  | > 100 µM |  | > 100 µM |  | > 100 µM |  | > 100 µM |  | > 100 µM | > 100 µM |  | > 100 µM |  |  |  |  | 
COc1ccc(C#CC2=C(Br)C(=O)OC2)cc1 | 13.3 µM | 34.6 µM |  |  | 9.43 µM | 28.6 µM | 25.8 µM | > 50 µM | 4.44 µM | > 50 µM |  |  | 6.61 µM | 1.76 µM | > 50 µM | 7.43 µM | 28.2 µM | 16.9 µM | 8.32 µM | 18.3 µM
CC(C)(C)CC(C)(C)c1cc2c(O)c(c1)Cc1cc(C(C)(C)CC(C)(C)C)cc(c1O)Cc1cc(C(C)(C)CC(C)(C)C)cc(c1O)Cc1cc(C(C)(C)CC(C)(C)C)cc(c1O)Cc1cc(C(C)(C)CC(C)(C)C)cc(c1O)Cc1cc(C(C)(C)CC(C)(C)C)cc(c1O)Cc1cc(C(C)(C)CC(C)(C)C)cc(c1O)Cc1cc(C(C)(C)CC(C)(C)C)cc(c1O)C2 |  |  |  | > 100 µM |  | > 100 µM |  | > 100 µM |  | > 100 µM |  | > 100 µM |  |  | > 100 µM |  |  |  |  | 
CCN(CC)CCOc1ccccc1-n1c(C)ccc1-c1ccccc1 |  |  | 17 µM | 31.1 µM | 16.3 µM | 32.1 µM | 11.6 µM | 28.3 µM | 13.9 µM | 33.3 µM | 19.2 µM | 36.6 µM | 28 µM | 13.6 µM | 30.6 µM | 12.8 µM | 35.9 µM | 15.6 µM |  | 
CC(NNC(=S)N1CCN(c2ccccn2)CC1)c1cccc[n+]1[O-] (stereo unspecified) |  | > 100 µM |  | > 100 µM |  | > 100 µM |  | 15.3 µM |  | > 100 µM |  |  | > 100 µM |  | > 100 µM |  | > 100 µM |  |  | > 100 µM
CSc1ccc(NC(=O)CCl)cc1 |  | > 10 µM |  | > 10 µM |  | 5.79 µM |  | 6.82 µM |  | > 10 µM |  |  | > 10 µM |  | > 10 µM |  | > 10 µM |  |  | 
CN(C)C(=S)/N=C(\N)N(C)C |  | > 100 µM |  | > 100 µM |  | > 100 µM |  | > 100 µM |  | > 100 µM |  | > 100 µM | > 100 µM |  | > 100 µM |  |  |  |  | 
Nc1ncnc2c1N=CN(Oc1ccccc1)N2 |  | > 100 µM |  |  |  | > 100 µM |  |  |  | > 100 µM |  | 32.2 µM | > 100 µM |  |  |  |  |  |  | 
O=C(/C=C/c1cc(O)ccc1O)c1ccc(Cl)cc1 | 22.3 µM | 66.8 µM | 20.5 µM | 52.2 µM | 31.8 µM | > 100 µM | 61.8 µM | > 100 µM | > 100 µM | > 100 µM |  |  | > 100 µM | 44 µM | > 100 µM |  |  | 20.7 µM | 25.9 µM | 51.8 µM
O=C(/C=C/c1ccco1)N1CCN(Cc2ccccc2)CC1 |  |  |  | > 100 µM |  | > 100 µM |  | > 100 µM |  | > 100 µM |  |  | > 100 µM |  | > 100 µM |  |  |  |  | 
CCC1C[N+]2=C(c3cc(OC)c(OC)cc3CC2)c2c1cc1n2CCc2cc(OC)c(OC)cc2-1 (stereo unspecified) | 7.49 µM | 21.2 µM | 3.51 µM | 26.5 µM | 11.8 µM | > 100 µM | 1.81 µM | 13.9 µM | 3.97 µM | 23.6 µM |  |  | 65.7 µM | 20.6 µM | 31.8 µM | 4.1 µM | > 100 µM | 3.49 µM | 2.69 µM | 13.5 µM
C=CCC(O)c1cc(OC)ccc1OC (stereo unspecified) |  | > 100 µM |  | > 100 µM |  | > 100 µM |  | > 100 µM |  |  |  | > 100 µM | > 100 µM |  | > 100 µM |  |  |  |  | 
CC/C(=N/O)C(C)C(=O)CCC(=O)Nc1ccc(Cl)cc1 (stereo unspecified) |  | > 100 µM |  |  |  | > 100 µM |  |  |  | > 100 µM |  | > 100 µM | > 100 µM |  | > 100 µM |  |  |  |  | 
CNC(=O)NCCCCC(NC(=O)OCc1ccccc1)C(=O)OCc1ccccc1 (stereo unspecified) |  | > 100 µM |  | 29.1 µM |  | > 100 µM |  | 28.3 µM |  | 40.9 µM |  | 47 µM | 48.6 µM |  |  |  |  |  |  | 
